Experimental data from PMC6964273 (ACS Omega, 2019).
Like-named read-outs stand apart in the source and are kept apart here.

Experiments:
C3PV cell line = assay: MTT cell viability assay on normal primary fibroblasts C3PV; type: cell-based, human; conditions: for IC50: 24 h, read-out: IC50 ± SD C3PV
[1] = tested on: cervical cancer cell line (HeLa); assay: MTT cell viability assay on HeLa; type: cell-based, human
[2] = tested on: SK-MEL3 metastatic melanoma cancer cell line; assay: MTT cell viability assay on SK-MEL3; type: cell-based, human; conditions: read-out: IC50 ± SD SK-MEL3
[3] = tested on: SK-MEL24 metastatic melanoma cancer cell line; assay: MTT cell viability assay on SK-MEL24; type: cell-based, human; conditions: read-out: IC50 ± SD SK-MEL24
[4] = tested on: RPMI-7951 metastatic melanoma cancer cell line; assay: MTT cell viability assay on RPMI-7951; type: cell-based, human; conditions: read-out: IC50 ± SD RPMI-7951
[5] = tested on: RPMI-7951 cancer cell line; assay: DFO assay; type: cell-based, human
SK-MEL3 cancer cell line = assay: DFO assay; type: cell-based, human
[6] = tested on: SK-MEL24 cancer cell line; assay: DFO assay; type: cell-based, human
[7] = Stability in the cell culture medium by TLC and HPLC; type: physicochemical; conditions: 48 h, room temperature
[8] = Homo sapiens, read-out: IC50 ± SD HeLa
[9] = Homo sapiens, RPMI-7951, 24 h, read-out: IC50 ± SD RPMI-7951 without DFO
[10] = Homo sapiens, RPMI-7951, read-out: IC50 ± SD RPMI-7951 with DFO
[11] = Homo sapiens, SK-MEL3, 24 h, read-out: IC50 ± SD SK-MEL3 without DFO
[12] = Homo sapiens, SK-MEL3, read-out: IC50 ± SD SK-MEL3 with DFO
[13] = Homo sapiens, SK-MEL-24, 24 h, read-out: IC50 ± SD SK-MEL24 without DFO
[14] = Homo sapiens, SK-MEL-24, read-out: IC50 ± SD SK-MEL24 with DFO
[15] = read-out: IC50 ± SD RPMI-7951 without DFO, without DFO, treatment time 24 hours
[16] = read-out: IC50 ± SD SK-MEL3 without DFO, without DFO, treatment time 24 hours
[17] = read-out: IC50 ± SD SK-MEL24 without DFO, without DFO, treatment time 24 hours

| Compound | IC50 [1, 8] [nM] | IC50 ([2]; Homo sapiens, SK-MEL3, 24 h) [nM] | IC50 ([3]; Homo sapiens, SK-MEL-24, 24 h) [nM] | IC50 ([4]; Homo sapiens, RPMI-7951, 24 h) [nM] | IC50 (C3PV cell line; Homo sapiens, C3PV) [nM] | other results |
| --- | --- | --- | --- | --- | --- | --- |
| C=CCc1ccc(O)c(OC)c1 [Compound 6, eugenol] | 4680 ± 1640 | 1160 ± 320 | 2610 ± 340 | 840 ± 340 | 6880 ± 85 |  |
| C=C(C)C1CC=C(COC(=O)CCC(=O)OC2OC3OC4(C)CCC5C(C)CCC(C2C)C35OO4)CC1 (stereo not drawn) [Compound 11iii] |  |  |  |  |  | cytotoxicity on normal cell line C3PV (in words) (C3PV cell line; C3PV, MTT): not cytotoxic; IC50 ([1]; read-out: IC50 ± SD HeLa, MTT): 1760 ± 470 nM; IC50 ([2]; SK-MEL3, MTT, 24 h): 5240 ± 2290 nM; IC50 ([3]; SK-MEL24, MTT, 24 h): 60 ± 100 nM; IC50 ([4]; RPMI-7951, MTT, 24 h): 2350 ± 1520 nM; IC50 [5, 15]: 2350 ± 900 nM; IC50 (SK-MEL3 cancer cell line; [16]): 5240 ± 200 nM; IC50 [6, 17]: 60 ± 10 nM |
| C[C@@H]1CC[C@H]2[C@@H](C)C(=O)O[C@@H]3O[C@@]4(C)CC[C@@H]1[C@]32OO4 [Compound 1, Artemisinin] | 1370 ± 590 | 3430 ± 860 | 8660 ± 4560 | 3620 ± 990 | > 300000 | cytotoxicity on normal cell line C3PV (in words) (C3PV cell line; C3PV, MTT): not cytotoxic; IC50 [5, 9]: 3620 ± 1600 nM; IC50 [5, 10]: 29000 ± 2800 nM; IC50 (SK-MEL3 cancer cell line; [11]): 3430 ± 800 nM; IC50 (SK-MEL3 cancer cell line; [12]): > 300000 nM; IC50 [6, 13]: 8660 ± 900 nM; IC50 [6, 14]: 27800 ± 3400 nM |
| C=CCc1ccc(OC(=O)CCC(=O)OC2OC3OC4(C)CCC5C(C)CCC(C2C)C35OO4)c(OC)c1 (stereo not drawn) [Compound 11ii] |  |  |  |  |  | IC50 (C3PV cell line; normal human primary fibroblast cell line, MTT): 6790 ± 150 nM; IC50 ([1]; read-out: IC50 ± SD HeLa, MTT): 1440 ± 1090 nM; IC50 ([2]; SK-MEL3, MTT, 24 h): 4650 ± 1800 nM; IC50 ([3]; SK-MEL24, MTT, 24 h): 5440 ± 2400 nM; IC50 ([4]; RPMI-7951, MTT, 24 h): 1210 ± 630 nM |
| OCCc1ccc(O)cc1 [Compound 8, tyrosol] | 1410 ± 790 | 2530 ± 1410 | 1690 ± 150 | 10800 ± 1400 | 22700 ± 1830 |  |
| C=C(C)[C@@H]1CC=C(CO)CC1 [Compound 7, perillyl alcohol] | 1630 ± 400 | 1370 ± 590 | 2690 ± 1300 | 1710 ± 520 | 3800 ± 280 |  |
| C[C@H]1[C@H](OC(=O)CCC(=O)Oc2ccc(CCO)cc2)O[C@@H]2O[C@@]3(C)CC[C@H]4[C@H](C)CC[C@@H]1[C@@]24OO3 [Compound 11iv] |  |  |  |  |  | cytotoxicity on normal cell line C3PV (in words) (C3PV cell line; C3PV, MTT): not cytotoxic; activity against HeLa (in words) ([1]; MTT): inactive; IC50 ([1]; read-out: IC50 ± SD HeLa, MTT): > 300000 nM; IC50 ([2]; SK-MEL3, MTT, 24 h): 2330 ± 1180 nM; IC50 ([3]; SK-MEL24, MTT, 24 h): 2320 ± 1190 nM; IC50 ([4]; RPMI-7951, MTT, 24 h): 8340 ± 3060 nM; IC50 [5, 15]: 8340 ± 2700 nM; IC50 (SK-MEL3 cancer cell line; [16]): 2330 ± 90 nM; IC50 [6, 17]: 2320 ± 900 nM; stability in the cell culture medium (ester bond; release of tyrosol) [7]: No traces of tyrosol were observed |

Now from value to compound, other results behind:

| IC50 [1, 8] [nM] | IC50 ([2]; Homo sapiens, SK-MEL3, 24 h) [nM] | IC50 ([3]; Homo sapiens, SK-MEL-24, 24 h) [nM] | IC50 ([4]; Homo sapiens, RPMI-7951, 24 h) [nM] | Compound | IC50 (C3PV cell line; Homo sapiens, C3PV) [nM] | other results |
| --- | --- | --- | --- | --- | --- | --- |
| 2120 ± 940 | 1690 ± 1240 | 3000 ± 1350 | 3950 ± 90 | COc1cc(/C=C/C(=O)CC(=O)/C=C/c2ccc(O)c(OC)c2)ccc1O [Compound 5, curcumin] | > 300000 |  |
| 6 ± 1.4 | 4730 ± 830 | 1040 ± 310 | 13 | CC(=O)O[C@H]1C(=O)[C@@]2(C)[C@H]([C@H](OC(=O)c3ccccc3)[C@]3(O)C[C@H](OC(=O)[C@H](O)[C@@H](NC(=O)c4ccccc4)c4ccccc4)C(C)=C1C3(C)C)[C@]1(OC(C)=O)CO[C@@H]1C[C@@H]2O [paclitaxel] | 78900 ± 790 |  |
| 1760 ± 380 | > 300000 | 820 ± 370 | 1080 ± 560 | C[C@H]1[C@H](OC(=O)CCC(=O)O)O[C@@H]2O[C@@]3(C)CC[C@H]4[C@H](C)CC[C@@H]1[C@@]24OO3 [Compound 3, artesunate] | 1680 ± 440 | IC50 [5, 9]: 1080 ± 600 nM; IC50 [5, 10]: 1090 ± 900 nM; IC50 (SK-MEL3 cancer cell line; [11]): > 300000 nM; IC50 (SK-MEL3 cancer cell line; [12]): > 300000 nM; IC50 [6, 13]: 820 ± 50 nM; IC50 [6, 14]: 900 ± 20 nM |
| 3030 ± 1500 | 1220 ± 640 | 2350 ± 1050 | 4110 ± 2100 | Cc1c(C)c2c(c(C)c1O)CC[C@@](C)(CCC[C@H](C)CCC[C@H](C)CCCC(C)C)O2 [Compound 9, α-tocopherol] | 74100 ± 5090 |  |
| 1320 ± 260 | 10400 ± 610 | 3230 ± 1600 | 910 ± 450 | C[C@H]1[C@@H](O)O[C@@H]2O[C@@]3(C)CC[C@H]4[C@H](C)CC[C@@H]1[C@@]24OO3 [Compound 2, dihydroartemisinin] | 680 ± 190 |  |
